2 compounds from the NIST ThermoML archive (doi:10.1016/j.tca.2010.07.023) can be followed below.

A short description of series [1]: Molar enthalpy of transition or fusion. Particulars: DSC.
For series [2] the following is noted: DTA.

Molecules are shown by their SMILES. ± gives the expanded uncertainty stated by the source.

Consider `CC1(C)[C@@H]2CC[C@@]1(C)C(=O)C2` [d-camphor], for which the figures for the “Molar enthalpy of transition or fusion” value in series [1] (Crystal 1), in series [1] (Crystal 2) and in series [1] (Crystal 3) were 1.51 ± 0.12 kcal/mol, 0.0382 ± 0.0239 kcal/mol and 2.68 ± 0.12 kcal/mol, respectively. Moreover, the Triple point temperature in series [2] (Crystal 1) is given as 451.8 ± 1.4 K; in series [2] (Crystal 2), 370 ± 4 K; in series [2] (Crystal 3), 242.7 ± 1.4 K.

Turning to `CC12CCC(CC1=O)C2(C)C` (configuration not stated) [1,7,7-trimethylbicyclo[2.2.1]-2-heptanone], the “Molar enthalpy of transition or fusion” value in series [1] (Crystal 1) amounted to 1.41 ± 0.0717 kcal/mol; in series [1] (Crystal 2) it was 0.0406 ± 0.0239 kcal/mol; in series [1] (Crystal 3), 0.311 ± 0.0717 kcal/mol. Further, the Triple point temperature in series [2] (Crystal 1) amounted to 448 ± 1.5 K; in series [2] (Crystal 2), 364 ± 5 K; in series [2] (Crystal 3) it was 206.1 ± 1.4 K.
